target: human TRPA1 (Homo sapiens (Human), UniProt O75762); assay: hTRPA1 CHO Ca2+ FLIPR assay (block of cinnamaldehyde induced calcium influx); format: cell-based; conditions: CHO cells expressing TRPA1; 75 uM cinnamaldehyde; Hill coefficient fixed to 1.5; read-out: hTRPA1 (hTRPA1 CHO Ca2+ MAX EVO (IC50))
Experimental: CHO cells expressing TRPA1 were plated into 384-well plates, incubated overnight at 37° C., and loaded with BD calcium indicator dye for 1 hr at 37° C. followed by 15 minutes at room temperature. The assay buffer was Hank's Balanced Salt Solution (HBSS) containing 20 mM HEPES (pH readjusted to 7.4) along with 0.02% BSA.
Following dye load and plate cool down, compounds were added to the cells using FLIPR Tetra. Plates were then incubated with compounds for 20 minutes at room temperature prior to adding agonist.
The IC50 results were fit with a standard Hill function, keeping the Hill coefficient (n) fixed to 1.5. Fixing the Hill coefficient will generally reduce variability of the IC50 determination. The IC50 results were individually examined to make sure the MIN and MAX points were set correctly prior to validation of the results.

Chain of human TRPA1 (O75762 whole entry): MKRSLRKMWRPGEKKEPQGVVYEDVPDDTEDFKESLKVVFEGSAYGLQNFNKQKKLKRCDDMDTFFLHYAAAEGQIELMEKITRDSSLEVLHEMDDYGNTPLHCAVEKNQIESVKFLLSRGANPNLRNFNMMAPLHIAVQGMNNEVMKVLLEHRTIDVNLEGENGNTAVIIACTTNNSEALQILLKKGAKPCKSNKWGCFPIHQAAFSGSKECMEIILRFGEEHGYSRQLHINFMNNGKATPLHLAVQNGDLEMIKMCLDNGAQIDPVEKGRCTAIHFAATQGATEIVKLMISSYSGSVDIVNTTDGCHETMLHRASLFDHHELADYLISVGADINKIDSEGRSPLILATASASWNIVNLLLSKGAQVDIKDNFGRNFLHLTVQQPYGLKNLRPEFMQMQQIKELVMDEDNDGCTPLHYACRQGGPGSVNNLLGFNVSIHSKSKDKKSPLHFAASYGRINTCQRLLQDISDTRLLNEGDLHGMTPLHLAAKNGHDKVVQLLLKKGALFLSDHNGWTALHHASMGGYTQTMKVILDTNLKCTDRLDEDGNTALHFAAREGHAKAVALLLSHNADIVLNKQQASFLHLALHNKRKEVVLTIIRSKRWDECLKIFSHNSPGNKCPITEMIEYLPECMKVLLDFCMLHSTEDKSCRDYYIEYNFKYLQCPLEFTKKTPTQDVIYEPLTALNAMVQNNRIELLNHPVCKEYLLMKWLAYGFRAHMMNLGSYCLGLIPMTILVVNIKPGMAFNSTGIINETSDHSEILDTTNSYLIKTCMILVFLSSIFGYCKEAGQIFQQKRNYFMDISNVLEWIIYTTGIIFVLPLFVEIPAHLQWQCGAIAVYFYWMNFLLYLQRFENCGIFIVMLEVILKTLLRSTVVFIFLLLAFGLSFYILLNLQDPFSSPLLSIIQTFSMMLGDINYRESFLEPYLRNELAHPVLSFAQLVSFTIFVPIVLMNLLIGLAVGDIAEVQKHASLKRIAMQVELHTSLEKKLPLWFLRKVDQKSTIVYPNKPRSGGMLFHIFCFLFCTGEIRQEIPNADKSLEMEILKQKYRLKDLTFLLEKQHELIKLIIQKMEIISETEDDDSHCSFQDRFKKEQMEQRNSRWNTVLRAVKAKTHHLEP

Point of comparison: `Cn1cnc2ncn(Cc3nn([C@H]4C[C@H](c5ccc(Br)cc5)C4)c(=O)o3)c(=O)c21` [compound 52, 3-[3-(4-bromophenyl)cyclobutyl]-5-[(7-methyl-6-oxo-purin-1-yl)methyl]-1,3,4-oxadiazol-2-one], IC50 20 nM. Against it:
- CN(C)c1ccc(CCn2nc(Cn3cnc4ncn(C)c4c3=O)oc2=O)cc1 [compound 17, 3-(4-(dimethylamino)phenethyl)-5-((7-methyl-6-oxo-6H-purin-1(7H)-yl)methyl)-1,3,4-oxadiazol-2(3H)-one] — 8.2-fold higher, 164 nM
- Cn1cnc2ncn(Cc3nn(CCc4ccc(C(F)F)cc4)c(=O)o3)c(=O)c21 [compound 18, 3-(4-(difluoromethyl)phenethyl)-5-((7-methyl-6-oxo-6H-purin-1(7H)-yl)methyl)-1,3,4-oxadiazol-2(3H)-one] — 25-fold higher, 509 nM
- C[C@H](Cn1nc(Cn2cnc3ncn(C)c3c2=O)oc1=O)c1ccc(Cl)cc1 [compound 19, (S)-3-(2-(4-chlorophenyl)propyl)-5-((7-methyl-6-oxo-6H-purin-1(7H)-yl)methyl)-1,3,4-oxadiazol-2(3H)-one] — 1.7-fold higher, 34 nM
- C[C@@H](Cn1nc(Cn2cnc3ncn(C)c3c2=O)oc1=O)c1ccc(Cl)cc1 [compound 20, (R)-3-(2-(4-chlorophenyl)propyl)-5-((7-methyl-6-oxo-6H-purin-1(7H)-yl)methyl)-1,3,4-oxadiazol-2(3H)-one] — 41-fold higher, 812 nM
- Cn1cnc2ncn(Cc3nn(CCc4ccc(Cl)s4)c(=O)o3)c(=O)c21 [compound 21, 3-(2-(5-chlorothiophen-2-yl)ethyl)-5-((7-methyl-6-oxo-6H-purin-1(7H)-yl)methyl)-1,3,4-oxadiazol-2(3H)-one] — 14-fold higher, 286 nM
- Cn1cnc2c(C#N)nn(Cc3nn(CCc4ccc(Cl)cc4)c(=O)o3)c2c1=O [compound 22, 1-([4-[2-(4-chlorophenyl)ethyl]-5-oxo-4,5-dihydro-1,3,4-oxadiazol-2-yl]methyl)-6-methyl-7-oxo-1H,6H,7H-pyrazolo[4,3-d]pyrimidine-3-carbonitrile] — within 1.5-fold, 14 nM
- Cn1cnc2ncn(Cc3nn(CCc4cccc(-c5ccccc5)c4)c(=O)o3)c(=O)c21 [compound 24, 7-methyl-1-([5-oxo-4-[2-(3-phenylphenyl)ethyl]-4,5-dihydro-1,3,4-oxadiazol-2-yl]methyl)-6,7-dihydro-1H-purin-6-one] — 17-fold higher, 338 nM
- Cn1cnc2ncn(Cc3nn(CCc4ccc(Br)c(Cl)c4)c(=O)o3)c(=O)c21 [compound 25, 1-([4-[2-(4-bromo-3-chlorophenyl)ethyl]-5-oxo-4,5-dihydro-1,3,4-oxadiazol-2-yl]methyl)-7-methyl-6,7-dihydro-1H-purin-6-one] — 6.6-fold higher, 132 nM
- Cn1cnc2ncn(Cc3nn(CCc4ccc(Cl)cc4)c(=O)o3)c2c1=O [compound 26, 7-([4-[2-(4-chlorophenyl)ethyl]-5-oxo-4,5-dihydro-1,3,4-oxadiazol-2-yl]methyl)-1-methyl-6,7-dihydro-1H-purin-6-one] — 37-fold higher, 737 nM
- Cc1cnnc2ncn(Cc3nn(CCc4ccc(Cl)cc4)c(=O)o3)c(=O)c12 [compound 27, 3-(4-chlorophenethyl)-5-((4-methyl-5-oxopyridazino[3,4-d]pyrimidin-6(5H)-yl)methyl)-1,3,4-oxadiazol-2(3H)-one] — 2.5-fold higher, 49 nM
- Cc1cc(C#N)nc2ncn(Cc3nn(CCc4ccc(Cl)cc4)c(=O)o3)c(=O)c12 [compound 28, 3-((4-(4-chlorophenethyl)-5-oxo-4,5-dihydro-1,3,4-oxadiazol-2-yl)methyl)-5-methyl-4-oxo-3,4-dihydropyrido[2,3-d]pyrimidine-7-carbonitrile] — 2.2-fold lower, 9 nM
- Cn1ccc2cc(CCn3nc(Cn4cnc5ncn(C)c5c4=O)oc3=O)ccc21 [compound 29, 3-[2-(1-methylindol-5-yl)ethyl]-5-[(7-methyl-6-oxo-purin-1-yl)methyl]-1,3,4-oxadiazol-2-one] — 4.3-fold higher, 87 nM
- Cn1cnc2c(C#N)nn(Cc3nc(CCc4ccc(Cl)cc4)no3)c2c1=O [compound 30, 1-[[3-[2-(4-chlorophenyl)ethyl]-1,2,4-oxadiazol-5-yl]methyl]-6-methyl-7-oxo-pyrazolo[4,3-d]pyrimidine-3-carbonitrile] — within 1.5-fold, 26.6 nM
- Cc1ccc(CCn2nc(Cn3cnc4ncn(C)c4c3=O)oc2=O)cc1 [compound 31, 5-[(7-methyl-6-oxo-purin-1-yl)methyl]-3-[2-(p-tolyl)ethyl]-1,3,4-oxadiazol-2-one] — 6.3-fold higher, 126 nM
- Cn1cnc2c(C#N)nn(Cc3nn(CCc4ccc(OC(F)F)cc4)c(=O)o3)c2c1=O [compound 32, 1-[(4-[2-[4-(difluoromethoxy)phenyl]ethyl]-5-oxo-4,5-dihydro-1,3,4-oxadiazol-2-yl)methyl]-6-methyl-7-oxo-1H,6H,7H-pyrazolo[4,3-d]pyrimidine-3-carbonitrile] — 1.8-fold higher, 36 nM
- Cn1cnc2cnn(Cc3nn(CCc4ccc(Cl)cc4)c(=O)o3)c(=O)c21 [compound 35, 3-[2-(4-chlorophenyl)ethyl]-5-[(3-methyl-4-oxo-imidazo[4,5-d]pyridazin-5-yl)methyl]-1,3,4-oxadiazol-2-one] — 4.8-fold higher, 96 nM
- Cn1cnc2ncn(Cc3nn(CCc4ccc5ccc(C#N)cc5c4)c(=O)o3)c(=O)c21 [compound 36, 7-[2-[5-[(7-methyl-6-oxo-purin-1-yl)methyl]-2-oxo-1,3,4-oxadiazol-3-yl]ethyl]naphthalene-2-carbonitrile] — 6-fold higher, 120 nM
- Cn1cnc2ncn(Cc3nn(C[C@@H](F)c4ccc5ccccc5c4)c(=O)o3)c(=O)c21 [compound 37, 5-[(7-methyl-6-oxo-purin-1-yl)methyl]-3-[(2S)-2-fluoro-2-(2-naphthyl)ethyl]-1,3,4-oxadiazol-2-one] — 17-fold higher, 332 nM
- Cc1cc(CCn2nc(Cn3cnc4ncn(C)c4c3=O)oc2=O)ccc1Cl [compound 39, 3-(4-chloro-3-methylphenethyl)-5-((7-methyl-6-oxo-6H-purin-1(7H)-yl)methyl)-1,3,4-oxadiazol-2(3H)-one] — 5.7-fold higher, 113 nM
- Cc1cnc(Cl)c2ncn(Cc3nn(CCc4ccc(Cl)cc4)c(=O)o3)c(=O)c12 [compound 40, 5-((8-chloro-5-methyl-4-oxopyrido[3,4-d]pyrimidin-3(4H)-yl)methyl)-3-(4-chlorophenethyl)-1,3,4-oxadiazol-2(3H)-one] — within 1.5-fold, 18 nM
- Cn1cnc2ncn(Cc3nn(CCc4ccc(Cl)cc4F)c(=O)o3)c(=O)c21 [compound 41, 3-(4-chloro-2-fluorophenethyl)-5-((7-methyl-6-oxo-6H-purin-1(7H)-yl)methyl)-1,3,4-oxadiazol-2(3H)-one] — 25-fold higher, 492 nM
- Cn1cnc2ncn(Cc3nn(CCc4ccc(Cl)c(-c5ccccc5)c4)c(=O)o3)c(=O)c21 [compound 42, 3-(2-(6-chlorobiphenyl-3-yl)ethyl)-5-((7-methyl-6-oxo-6H-purin-1(7H)-yl)methyl)-1,3,4-oxadiazol-2(3H)-one] — 4.9-fold higher, 98 nM
- Cc1cnc(C#N)c2ncn(Cc3nn(CCc4ccc(Cl)cc4)c(=O)o3)c(=O)c12 [compound 43] — within 1.5-fold, 18 nM
- Cn1cnc2ncn(Cc3nn(C[C@H](F)c4ccc(Br)cc4)c(=O)o3)c(=O)c21 [compound 44, (R)-3-(2-(4-bromophenyl)-2-fluoroethyl)-5-((7-methyl-6-oxo-6H-purin-1(7H)-yl)methyl)-1,3,4-oxadiazol-2(3H)-one] — 2-fold lower, 10 nM
- Cn1cnc2ncn(Cc3nn(C[C@@H](F)c4ccc(Br)cc4)c(=O)o3)c(=O)c21 [compound 45, (S)-3-(2-(4-bromophenyl)-2-fluoroethyl)-5-((7-methyl-6-oxo-6H-purin-1(7H)-yl)methyl)-1,3,4-oxadiazol-2(3H)-one] — 60-fold higher, 1200 nM
- Cc1ncnc2ncn(Cc3nn(CCc4ccc(Cl)cc4)c(=O)o3)c(=O)c12 [compound 46, 3-(4-chlorophenethyl)-5-((5-methyl-4-oxopyrimido[4,5-d]pyrimidin-3(4H)-yl)methyl)-1,3,4-oxadiazol-2(3H)-one] — 5.3-fold higher, 107 nM
- Cc1csc2ncc(Cc3nn(CCc4ccc(Cl)cc4)c(=O)o3)c(=O)n12 [compound 47, 3-(4-chlorophenethyl)-5-((3-methyl-5-oxo-5H-thiazolo[3,2-a]pyrimidin-6-yl)methyl)-1,3,4-oxadiazol-2(3H)-one] — 3.2-fold higher, 65 nM
- Cn1cnc2ncn(Cc3nn(C[C@@H]4CCc5ccc(Cl)cc54)c(=O)o3)c(=O)c21 [compound 48] — 9.8-fold higher, 196 nM
- Cn1cnc2ncn(Cc3nn(C[C@@H]4CCc5cc(Cl)ccc54)c(=O)o3)c(=O)c21 [compound 49, (R)-3-((5-chloro-2,3-dihydro-1H-inden-1-yl)methyl)-5-((7-methyl-6-oxo-6,7-dihydro-1H-purin-1-yl)methyl)-1,3,4-oxadiazol-2(3H)-one] — 3-fold higher, 61 nM
- Cn1cnc2ncn(Cc3nn([C@H]4C[C@H](c5ccccc5)C4)c(=O)o3)c(=O)c21 [compound 51, 5-[(7-methyl-6-oxo-purin-1-yl)methyl]-3-(3-phenylcyclobutyl)-1,3,4-oxadiazol-2-one] — 8.4-fold higher, 168 nM
- Cn1cnc2ncn(Cc3nn([C@H]4C[C@H](c5cccc(Cl)c5)C4)c(=O)o3)c(=O)c21 [compound 53, 3-[3-(3-chlorophenyl)cyclobutyl]-5-[(7-methyl-6-oxo-purin-1-yl)methyl]-1,3,4-oxadiazol-2-one] — 2.2-fold higher, 44 nM
- COc1ccc([C@H]2C[C@H](n3nc(Cn4cnc5ncn(C)c5c4=O)oc3=O)C2)cc1 [compound 54, 3-(3-(4-methoxyphenyl)cyclobutyl)-5-((7-methyl-6-oxo-6,7-dihydro-1H-purin-1-yl)methyl)-1,3,4-oxadiazol-2(3H)-one] — 5.2-fold higher, 105 nM
- Cn1cnc2ncn(Cc3nn(CCc4ccc(-c5ccccc5)cc4)c(=O)o3)c(=O)c21 [compound 55, 5-[(7-methyl-6-oxo-purin-1-yl)methyl]-3-[2-(4-phenylphenyl)ethyl]-1,3,4-oxadiazol-2-one] — 13-fold higher, 251 nM
